Data as given in paper PMC3871589, “Evaluation of STAT3 Signaling in ALDH+ and ALDH+/CD44+/CD24− Subpopulations of Breast Cancer Cells” (PLoS ONE, 2013).

Key:
[1] = test system: ALDH+/CD44+/CD24− subpopulation of MDA-MB-231 and SUM159; assay: Caspase-3 cleavage in ALDH+/CD44+/CD24− cells; format: cell-based, human; conditions: 0.5–5 µM
Description: The ALDEFLUOR kit (StemCell Technologies) was used to isolate the population with high ALDH enzymatic activity as previously described. Briefly, cells were trypsinized to single cells using 0.05% trypsin and subsequently suspended in ALDEFLUOR assay buffer containing ALDH substrate (BAAA, 1 µmol/l per 1×10^6 cells) and then incubated for 40 minutes at 37°C. For each sample, an aliquot of cells was stained under identical conditions with 15 mmol/L diethylaminobenzaldehyde (DEAB), a specific ALDH inhibitor, as an ALDH^− control. Anti-human PE-CD24 and PE-Cy5-CD44 antibody (BioLegend) were used for CD44/CD24 identification and to separate ALDH^+/CD44^+/CD24^− and ALDH^−/CD44^+/CD24^+ cells when combined with ALDH staining. Analysis was performed using a FACStarPLUS (Becton Dickinion) flow cytometer. To assess the effect of STAT3 inhibitors on the subpopulation of ALDH^+ cells, un-separated breast cancer cells were treated with 5 µmol/L of LLL12 or 10 µmol/L Stattic for 24 hours prior to performing the ALDEFLUOR assay.
After sorting by flow cytometry, ALDH^+ and ALDH^+/CD44^+/CD24^− stem-like cells were cultured in serum-free stem cell medium in ultra-low attachment six-well plates (Corning) to maintain cancer stem cell characteristics. […]

[2] = test system: SUM159 ALDH+ breast cancer stem-like cells; assay: Mouse mammary fat pad model with SUM159 ALDH+ cells; format: in vivo, NOD/SCID mice; conditions: 5 mg/kg IP daily
Description: For mammary fat pad experiments, 1×10^5 of sorted SUM159 ALDH^+ cells, assessed using Aldefluor kit (StemCell Technologies) were injected into the humanized fat pads of NOD/SCID mice (The Jackson Laboratory), as previously described [5]. […] Tumors were measured by a caliper and the volume was calculated using V = π (width^2×length)/6. After 15 days of treatments with LLL12 or vehicle control, tumors were harvested from euthanized mice, snap-frozen in liquid nitrogen, and stored in −80°C. […] The rest of tumors tissues were homogenized to examine the expression of STAT3 phosphorylation by western blot.

NS(=O)(=O)c1cccc2c1C(=O)c1cccc(O)c1C2=O [LLL12]
caspase-3 cleavage [1]: induced caspase-3 cleavage | STAT3 phosphorylation in tumor [2]: significant suppresses | tumor mass ([2]; 15 days, P<0.05): significant suppresses | tumor volume ([2]; 15 days, P<0.05): significant suppresses
